The text below walks through data of ChEMBL document CHEMBL1153471, “3,5-Diphenylpent-2-enoic acids as allosteric activators of the protein kinase PDK1: structure-activity relationships and thermodynamic characterization of binding as paradigms for PIF-binding pocket-targeting compounds” (J Med Chem, 2009).

Assay [1] deals with T1, 3-phosphoinositide-dependent protein kinase 1 (Homo sapiens, UniProt O15530).
T1 sequence (O15530 whole entry): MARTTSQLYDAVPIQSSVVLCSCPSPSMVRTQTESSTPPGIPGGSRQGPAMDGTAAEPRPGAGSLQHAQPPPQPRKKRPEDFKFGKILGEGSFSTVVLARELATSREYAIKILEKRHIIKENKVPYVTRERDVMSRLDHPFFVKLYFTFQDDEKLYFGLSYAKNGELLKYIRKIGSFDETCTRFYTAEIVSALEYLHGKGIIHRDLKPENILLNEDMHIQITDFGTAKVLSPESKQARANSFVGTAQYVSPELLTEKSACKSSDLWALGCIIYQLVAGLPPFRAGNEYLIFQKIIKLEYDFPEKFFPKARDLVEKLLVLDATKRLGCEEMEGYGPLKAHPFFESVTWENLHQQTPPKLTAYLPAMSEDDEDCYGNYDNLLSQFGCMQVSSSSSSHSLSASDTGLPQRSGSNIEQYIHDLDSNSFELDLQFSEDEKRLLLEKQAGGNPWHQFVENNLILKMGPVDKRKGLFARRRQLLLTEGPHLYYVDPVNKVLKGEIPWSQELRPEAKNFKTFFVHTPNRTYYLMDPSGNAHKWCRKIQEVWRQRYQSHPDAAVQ
The assay is described as follows: Binding affinity to PDK1 (50 to 359) by isothermal titration calorimetry.

Assay [2] addresses T2, 3-phosphoinositide-dependent protein kinase 1 (Homo sapiens) (UniProt O15530).
T2 sequence (whole entry): T1 sequence (O15530 whole entry)

Assay [3] concerns T3, 3-phosphoinositide-dependent protein kinase 1 (Homo sapiens), O15530 [V127T].
T3 sequence (whole entry): T1 sequence (O15530 whole entry) with V127T
Description: Binding affinity to GST-PDK1 V127T mutant expressed in HEK293 cells at 2 uM. The class given is cell-based.

Assay [4] has as its target T2, 3-phosphoinositide-dependent protein kinase 1 (Homo sapiens). Description: Binding affinity to wild type recombinant GST-PDK1 expressed in HEK293 cells at 2 uM. The class given is cell-based.

Changes are numbered by the printed parent chain. The source made the active and inactive calls. No cut-off for these calls is given here.

On to `O=C(O)/C=C(\CCC1C=Nc2ccccc21)c1ccccc1` (centres undefined), for which the Kd entry in assay [1] is “Not Active”.
`O=C(O)/C=C(/CCc1ccc(Cl)c(Cl)c1)c1ccccc1`: the Kd in assay [1] (read-out: Kd) was determined as 13.9 µM. In assay [2], this compound registered a Ka of 71800 M⁻¹.
Regarding `O=C(O)/C=C(\CCc1ccc2ccccc2c1)c1ccccc1`, the equilibrium dissociation constant (Kd) result in assay [1] is reported as “Not Active”.
For H-REPRILSEEEQEMFRDFDYIADEC-OH, the result in assay [3] and in assay [4] was Active.
Take `O=C(O)/C=C(/CCc1ccc(Cl)cc1Cl)c1ccccc1`: the Kd in assay [1] (read-out: Kd) amounted to 5.9 µM.
Take `O=C(O)/C=C(/CCc1ccc(C(F)(F)F)cc1)c1ccccc1`: the Kd in assay [1] (read-out: Kd) was 10.4 µM. This compound had a Ka in assay [2] of 96600 M⁻¹.
For the compound `O=C(O)/C=C(/CCc1ccc(Br)cc1)c1ccccc1`, in assay [1] (read-out: Kd), the Kd amounted to 20.9 µM. Besides, the Ka in assay [2] was 47800 M⁻¹.
For the compound `O=C(O)/C=C(/CCc1c[nH]c2ccccc12)c1ccccc1`, the Kd in assay [1] (read-out: Kd) worked out at 10 µM.
As to `O=C(O)/C=C(\CCc1ccc(Br)cc1F)c1ccccc1`, the Kd entry in assay [1] is listed as “Not Active”.
As for `O=C(O)/C=C(/CCc1ccc2ccccc2c1)c1ccccc1`, in assay [1] (read-out: Kd), the dissociation constant Kd was 13.8 µM.
